Assay results taken from US10040813B2, “Compounds as positive allosteric modulators for erythropoietin and erythropoietin receptor to treat erythropoietin deficiency diseases” (ACAHEALTH PHARMA & BIOTECH CO., LTD., priority 2015, dated 2018).
“Also recorded” adds a separate entry of the source.

Test system: cisplatin-induced nephropathy in mice
Assay: Cisplatin-induced nephropathy mouse model (anaemia and renal function)
Type: in vivo
Experimental: Forty six-to-seven-week-old C57Bl/6J male mice were i.p. injected with three doses of cisplatin (Sigma-Aldrich), following the scheme of 7, 6, and 6 mg·kg-1 body weight, at 4 to 5 day intervals, and the normal group (n=4) was injected with saline (FIG. 1 scheme). On day 12, the collected serum samples were assayed for the urea nitrogen content (BUN). Mice with BUN values greater than 80 mg·dL-1 were chosen for the experiment. An average seventy percent of injected mice were successful induced renal dysfunction, and the ineffective mice were excluded from the EH202 treating experiments. The mice were subsequently divided randomly into 4 cohorts comprising the control (Ctrl, n=6) and three EH202-treated groups (n=5 to 6 for each group) for an additional 2 weeks. Blood samples from all the mice were collected every 5 days. The RBC numbers were determined from the complete blood cell count using a Sysmex Kx-21 haematology analyser (Sysmex America), and the serum BUN and creatinine levels were determined using a commercial kit (Randox Laboratories Ltd. United Kingdom). All results are expressed as the mean±SEM. The statistical analysis was performed using Student's t-test. One-way ANOVA was used to examine the differences across the animal experimental groups. The posthoc differences between the means of the experimental groups were determined via Tukey's test. P<0.05 was considered significant.

`OC[C@H]1OC(Oc2c(/C=C/c3ccc(F)cc3)ccc3ccccc23)[C@H](O)[C@@H](O)[C@@H]1O` (stereo partly drawn) [EH202, (Naphthanol-4′fluoro-stilbenzene)-1-O-β-D-glycoside] was tested, and the BUN levels (10, 30 and 90 mg·kg-1 treatment groups, day 29, FIG. 2C) was “accelerates the recovery from renal dysfunction; also recorded: significantly recovered”, the “recovery of anaemia (HGB level, RBC numbers)” value (30 and 90 mg·kg-1, FIGS. 2D and 2E) was “increasing recovery of anaemia” and the “recovery of renal dysfunction (creatinine level in the peripheral blood)” value (30 and 90 mg·kg-1 for 10 days, day 24, FIG. 2B) was “accelerates the recovery from renal dysfunction; also recorded: almost complete recovery of renal dysfunction”. The “recovery from anemia, hemoglobin (HGB) level in the peripheral blood” value (day 24, FIG. 2D) was “accelerates the recovery from anemia” and the “recovery from anemia, RBC numbers in the peripheral blood” value (day 29, FIG. 2E) was “accelerates the recovery from anemia”.
